The target of assay [1] is T1, CB1 receptor (Homo sapiens, UniProt P21554).
T1 construct: expressed in transfected cells
Nature of the assay: cell-based. As to conditions: CB1 Receptor Functional Agonist EC50, SK-N-MC cells, forskolin induced β-galactosidase activity. In outline: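 SK-N-MC cells stably co-expressing human CB1 and a CRE-β-galactosidase reporter; forskolin-induced β-gal activity measured after compound treatment, as % of vehicle-treated cells (100%). EC50 by linear regression from concentration series; otherwise % change at a single concentration.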

Assay [2] addresses T2, CB2 receptor (Homo sapiens, UniProt P34972).
T2 construct: expressed in transfected cells
Nature of the assay: Modified functional cell-based assay (Beta-Glo luminescence), CB2 receptor. As to conditions: CB2 EC50 (Receptor Functional Activity), one sample per compound, Cpd 237 n=3. The procedure: Additional functional activity studies were performed with minor modifications. Beta galactosidase activity was quantified using the luminescent Beta-Glo Assay System (Promega Corp. Madison, Wis.) and an Orion Microplate Luminometer (Berthold Detection Systems, Oak Ridge, Tenn.). The EC50 values were calculated using GraphPad Prism and a four parameter logistic equation.
The functional activity EC50 value for compounds tested (shown in Table 8) were obtained from studies in which varying compound concentrations were used. With the exception of Cpd 237 (n=3), one sample for each compound was tested.

Assay [3] has as its target T2, CB2 receptor. Kind of assay: Modified binding assay, CB2 receptor in CHO cells, [3H]WIN 55212. As to conditions: [3H]WIN 55212 0.8 nM, 120 minutes at 37° C. The procedure:
(§1) Additional receptor binding studies were performed with minor modifications as detailed below.
(§2) The human CB1 and CB2 receptors were stably expressed in CHO cells as described in Rinaldi-Carmona, M., Calandra, B., Shire, D., Bouaboula, M., Oustric, D., Barth, F., Casellas, P., Ferrara, P. and Le Fur, G. (1996) J. PharmacoL Exp. Ther., 278: 871-878 and Munro, S., Thomas, K. L. and Abu-Shaar, M. (1993) Nature, 365: 61-65, respectively. [^3H]CP 55940 (0.5 nM) was used as the radioligand for the CB1 receptor binding assay. [^3H]WIN 55212 (0.8 nM) was used as the radioligand for the CB2 receptor binding assay. Incubation was carried out for 120 minutes at 37° C.
(§3) The specific ligand binding to the receptors is defined as the difference between the total binding and the nonspecific binding determined in the presence of an excess of unlabelled ligand. The results are expressed as a percent of control specific binding ((measured specific binding/control specific binding)×100) obtained in the presence of the test compounds.
(§4) The IC50 values (concentration causing a half-maximal inhibition of control specific binding) were determined by non-linear regression analysis of the competition curves generated with mean replicate values using Hill equation curve fitting (where Y=specific binding, D=minimum specific binding, A=maximum specific binding, C=compound concentration, C50=IC50 and nH=slope factor): (Y=D+[(A−D)/(1+(C/C50)^nH)] CB1 and CB2 Receptor Binding Results
(§5) For compounds tested, an IC50 binding value was obtained from percent inhibition studies in which various test concentrations were used.

Assay [4] deals with T1, CB1 receptor. Nature of the assay: Binding assay for CB1 agonists or inverse agonists (SK-N-MC membranes, [3H]-CP-55,940). Particulars: for inhibition at 0.2 µM: read-out: CB1 receptor binding percent inhibition, test concentration 0.2 μM (footnote 2). The gist of the method:
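Membranes from SK-N-MC cells stably expressing human CB1 incubated with compound and [3H]-CP-55,940 ([…]) for 90 min at 30° C in Tris-HCl pH 7.5, MgCl2, EDTA, fatty-acid-free BSA. Non-specific binding defined with 10 uM WIN 55,212; filtration, scintillation count; IC50 by linear regression.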

Assay [5] has as its target T1, CB1 receptor. Kind of assay: Modified binding assay, CB1 receptor in CHO cells, [3H]CP 55940. As to conditions: [3H]CP 55940 0.5 nM, 120 minutes at 37° C. The procedure:
as §1, §2, §3, §4, §5

Assay [6] concerns the target T2, CB2 receptor. Kind of assay: Functional cell-based assay, CB2 receptor mediated change in CRE β-gal expression (SK-N-MC cells). As to conditions: CB2 Receptor Functional Agonist EC50, forskolin induced β-galactosidase activity, SK-N-MC cells. The gist of the method:
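SK-N-MC cells stably co-transfected with human CB2 receptor and CRE β-gal reporter; β-galactosidase activity measured after forskolin stimulation. Compound-treated activity expressed as percent of vehicle control; EC50 from linear regression over varying compound concentrations.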

The mark [7] stands for this setting: Cannabinoid CB1 Receptor Binding IC50, calculated by linear regression from percent inhibition at various test concentrations.

In patent US8378117B2 (priority 2005, dated 2013) one finds EC50, IC50 and inhibition data, which are given here for 4 compounds.

T1 sequence (P21554 whole entry): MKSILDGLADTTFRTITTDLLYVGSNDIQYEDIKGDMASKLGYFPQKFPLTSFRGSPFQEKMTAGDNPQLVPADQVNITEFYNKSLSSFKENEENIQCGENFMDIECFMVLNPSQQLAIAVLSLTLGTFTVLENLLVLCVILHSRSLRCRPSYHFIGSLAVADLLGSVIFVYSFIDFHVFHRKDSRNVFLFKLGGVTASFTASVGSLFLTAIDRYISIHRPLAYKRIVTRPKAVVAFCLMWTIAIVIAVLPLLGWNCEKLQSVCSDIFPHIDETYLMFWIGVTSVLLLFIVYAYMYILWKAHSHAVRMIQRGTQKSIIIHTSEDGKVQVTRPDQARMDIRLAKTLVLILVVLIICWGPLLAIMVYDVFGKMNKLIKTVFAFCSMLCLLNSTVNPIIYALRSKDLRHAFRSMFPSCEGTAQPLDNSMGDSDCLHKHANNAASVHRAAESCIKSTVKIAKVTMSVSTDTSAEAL
T2 sequence (P34972 whole entry): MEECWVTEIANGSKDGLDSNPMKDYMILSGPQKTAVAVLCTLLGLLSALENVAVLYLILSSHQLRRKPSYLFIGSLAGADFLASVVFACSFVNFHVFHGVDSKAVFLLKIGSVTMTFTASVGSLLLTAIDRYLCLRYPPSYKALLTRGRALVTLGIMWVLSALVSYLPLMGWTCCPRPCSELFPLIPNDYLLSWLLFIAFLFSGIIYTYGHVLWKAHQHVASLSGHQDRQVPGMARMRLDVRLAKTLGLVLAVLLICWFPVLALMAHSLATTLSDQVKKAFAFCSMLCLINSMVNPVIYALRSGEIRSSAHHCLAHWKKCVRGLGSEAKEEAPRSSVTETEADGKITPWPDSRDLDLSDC

Consider `O=C(N[C@H](CO)c1ccccc1)c1n[nH]c2c1CCCCC2Cc1cccc(Cl)c1` (single isomer, unassigned) [Cpd 230, (8R*)-8-(3-chloro-benzyl)-1,4,5,6,7,8-hexahydro-cycloheptapyrazole-3-carboxylic acid [(1S)-2-hydroxy-1-phenyl-ethyl]-amide], for which the concentration giving a half-maximal response (EC50) was found to be 1000 nM on CB1 receptor [1], 11 nM on CB2 receptor [2] and 2 nM at CB2 receptor [6]. The half-inhibitory concentration (IC50) is 92 nM on CB2 receptor [3], 300 nM on CB1 receptor [4] (setting [7]) and 370 nM at CB1 receptor [5].

With `O=C(N[C@H](CO)c1ccccc1)c1n[nH]c2c1CCCCC2Cc1cccc(Cl)c1` (single isomer, unassigned) [Cpd 231, (8S*)-8-(3-chloro-benzyl)-1,4,5,6,7,8-hexahydro-cycloheptapyrazole-3-carboxylic acid [(1S)-2-hydroxy-1-phenyl-ethyl]-amide], the values for the concentration giving a half-maximal response (EC50) at CB1 receptor [1], on CB2 receptor [2] and at CB2 receptor [6] were over 5000 nM, 82 nM and 12 nM, respectively. The concentration for half-maximal inhibition (IC50) was 1800 nM at CB2 receptor [3]; 300 nM at CB1 receptor [4] (read-out: Cannabinoid CB1 Receptor Binding IC50, calculated by linear regression from percent inhibition at various test concentrations); over 3000 nM at CB1 receptor [5].

For `C[C@H](NS(=O)(=O)/C=C/c1n[nH]c2c1CCCCC2Cc1cccc(F)c1)c1ccccc1` (single isomer, unassigned) [Cpd 232, (2E)-2-[(8R*)-8-(3-fluoro-benzyl)-1,4,5,6,7,8-hexahydro-cycloheptapyrazol-3-yl]-ethenesulfonic acid [(1S)-1-phenyl-ethyl]-amide], the EC50 at CB1 receptor [1] is over 5000 nM; at CB2 receptor [2], 150 nM; at CB2 receptor [6] it was 9 nM. The IC50 at CB1 receptor [4] (setting [7]) was 300 nM. Further, the inhibition at 0.2 µM on CB1 receptor [4] came out at 0%.

For the compound `C[C@H](NS(=O)(=O)/C=C/c1n[nH]c2c1CCCC/C2=C\c1ccc(Cl)cc1)c1ccccc1` [Cpd 237, (2E,8E)-2-[8-(4-chloro-benzylidene)-1,4,5,6,7,8-hexahydro-cycloheptapyrazol-3-yl]-ethenesulfonic acid [(1S)-1-phenyl-ethyl]-amide], the EC50 at CB1 receptor [1] amounted to 1700 nM; at CB2 receptor [2], 3200 nM; on CB2 receptor [6] it was 9 nM. Also, the IC50 is 690 nM on CB2 receptor [3], 300 nM at CB1 receptor [4] (setting [7]) and over 3000 nM on CB1 receptor [5]. For the same compound, the inhibition at 0.2 µM at CB1 receptor [4] came out at 0%.
